Common to all, as to format: in vivo
The test system of data set [1] is opioid-induced emesis. The experiment in a line: Ferret model of opioid (morphine-6-glucuronide)-induced emesis. The method, then: FIG. 1. Prevention of opioid-induced emesis by the Croton speceis extract, (Zangrado®). Emesis as measured by the number of vomiting and retching episodes per hour was induced by parenteral administration of the opioid narcotic, morphine-6-glucuronide (15 mg/kg) ip.
Sangre de Grado has also been used ethnomedically for the treatment of a variety of intestinal complications including diarrhea, ulcerations, cancer and emesis. Using a well-established ferret model of post-operative complications of emesis induced by morphine, Zangrado (CGO 110) was administered intraperitoneally (3 mg/kg) to ferrets 15 minutes prior to the administration of morphine-6-glucuronide (M6G), known to promote itching, retching and vomiting. The animals were monitored for sixty minutes.
As shown in FIG. 1 the subcutaneous injection of 0.05 mg/kg M6G caused a significant number of vomiting (2.2±0.4) and retching (10±1.2) incidences in the control group. In those animals treated with Zangrado (CGO 110), the number of these episodes was virtually abolished (vomiting 0.6±0.3; retching 2.2±0.7, P<0.05). Given the utility of this model to predict treatments for nausea and vomiting, Zangrado (CGO 110) contains active components and is effective in the treatment of emesis.

Data set [2] deals with opioid-induced itch. The experiment in a line: Ferret model of opioid (morphine-6-glucuronide)-induced itch (licking). The method, then: FIG. 2: FIG. 2. Prevention of opioid-induced itch by Zangrado. Itch, as measured by the number of licking episodes per hour, was induced by parenteral administration of the opioid narcotic, morphine-6-glucuronide (15 mg/kg) ip.
Zangrado (CGO 110) contains active components and is effective in the treatment of itch.

A short description of data set [3]: Body temperature and sedation at anti-emetic doses. As to conditions: CGO 110 3 mg/kg. The source says:
As such, Zangrado represents a significant improvement in the treatment of emesis and itch.

`Cc1c(C(=O)NN2CCCCC2)nn(-c2ccc(Cl)cc2Cl)c1-c1ccc(I)cc1` [AM251]: in data set [1], the “effect on emesis in naïve animals” value is on record as “promotes emesis”. In data set [2], the “effect on licking in naïve animals” value is “promotes licking”.
For `Cc1c(C(=O)c2cccc3ccccc23)c2cccc3c2n1[C@H](CN1CCOCC1)CO3` [WIN 55, 212-2], in data set [3], the “effect on body temperature” value is given as “produces a drop in body temperature” and the sedation result was “significant sedation”.

The values are drawn from patent US7632524B2, “Pharmaceutical preparations for the treatment of itch, nausea, hyperalgesia and the complications of opioid agonists” (priority 2002, dated 2009).
